Data on 15 compounds can be found in PubChem BioAssay (NCI).

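Tested at 5 concentrations; 48 h exposure; 96-well plates; endpoints linearly interpolated, else capped at highest concentration. TGI is the concentration that stops growth completely.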 Bounds are passed on as bounds.

Holding throughout (test): NCI tumour cell line growth inhibition, 48 h
The test system of assay [1] is UACC-62 melanoma.
For assay [2], the system named is U251 CNS.
The test system of assay [3] is K-562 leukemia.
For assay [4], the system named is SNB-19 CNS.
Assay [5] concerns EKVX NSCLC.
The test system of assay [6] is MDA-MB-435.
For assay [7], the system named is KM12 colon.
Assay [8] concerns NCI-H23 lung.
In assay [9] the test system is SW-620 colon.
Assay [10] deals with 786-0 renal.
In assay [11] the test system is NCI/ADR-RES ovarian.
In assay [12] the test system is OVCAR-4 ovarian.
The test system of assay [13] is UACC-257 melanoma.
In assay [14] the test system is ACHN renal.
The test system of assay [15] is MDA-N.
Assay [16] deals with SF-295 CNS.
In assay [17] the test system is HS 578T breast.
Assay [18] concerns NCI-H460 lung.
In assay [19] the test system is NCI-H226 lung.

`Nc1cccc(C#Cc2cccc(C#Cc3cccc(N)n3)n2)n1`: the TGI in [1], in assay [2], in assay [3], in [4], in assay [5] and in assay [6] was > 100 µM in each case. Besides, the TGI in assay [7], in [8], in [9], in [10], in assay [11] and in [12] was > 100 µM each time. Moreover, the TGI in [13], in [14], in assay [15], in assay [16], in assay [17] and in assay [18] was > 100 µM in each case. For the same compound, in assay [19], the TGI was > 100 µM.
As to `CN(C)/C=C/c1nnnn1-c1ccc(I)cc1`, the TGI was found to be 31.1 µM in assay [1]; 34.9 µM in assay [2]; 44.5 µM in assay [3]; 59.2 µM in assay [4]; 51.3 µM in [5]; 60.7 µM in assay [6]. For the same compound, the TGI was 36.7 µM in assay [7]; 56.1 µM in [8]; 50.6 µM in assay [9]; > 100 µM in [10]; 63.5 µM in [11]; 66 µM in assay [12]. Besides, the TGI in [13] is 67.5 µM; in assay [14], 63.1 µM; in assay [15], 74.2 µM; in assay [16], > 100 µM; in assay [17] it was 45.2 µM; in [18] it was > 100 µM. The TGI in assay [19] turned out to be 56.9 µM.
As for `NS(=O)(=O)c1nnc(/N=C(/CCC(=O)O)C(=O)O)s1`, the TGI in assay [1], in [2], in assay [3], in assay [4], in assay [5] and in assay [6] was > 100 µM in each case. For the same compound, the TGI in [7], in [8], in assay [9], in assay [10], in assay [11] and in [12] was > 100 µM in each case. Besides, the TGI in [13], in assay [14], in assay [15], in assay [16], in [17] and in [18] was > 100 µM throughout. Besides, the TGI in [19] was > 100 µM.
For the compound `C/C1=C\CC/C(C)=C/C=C(/C(C)C)CC/C(C(=O)O)=C/CC1`, the TGI in [1], in [2], in [3], in assay [4], in assay [5] and in assay [6] was > 100 µM each time. Also, the TGI in assay [7], in assay [8], in assay [9], in assay [10], in [11] and in assay [12] was > 100 µM throughout. For the same compound, the TGI in [13] was > 100 µM; in assay [14] it was > 100 µM; in assay [15], > 100 µM; in assay [16] it was 78.3 µM; in [17], > 100 µM; in assay [18], > 100 µM. Besides, the TGI in [19] was > 100 µM.
For `COc1ccc(NS(=O)c2ccc(OC)cc2)cc1` (stereo not given), the TGI was 66.2 µM in assay [1]; 34.2 µM in assay [2]; > 100 µM in assay [3]; > 100 µM in assay [4]; > 100 µM in assay [5]; > 100 µM in assay [6]. The TGI in [7] was 24.1 µM; in [8], > 100 µM; in assay [9], > 100 µM; in [10], > 100 µM; in assay [11] it was > 100 µM; in assay [12] it was > 100 µM. Also, the TGI in assay [13], in assay [14], in assay [15], in [16], in assay [17] and in assay [18] was > 100 µM in each case. For the same compound, the TGI in [19] is > 100 µM.
As for `COc1cccc(C[C@H]2COC(=O)[C@]2(O)Cc2cccc(OC)c2)c1`, the TGI in assay [1] is > 100 µM; in assay [2], > 100 µM; in assay [3], > 100 µM; in assay [4] it was > 100 µM; in assay [5], 81.6 µM; in assay [6] it was > 100 µM. The TGI in [7], in [8], in assay [9], in [10], in assay [11] and in [12] was > 100 µM throughout. In addition, the TGI in assay [13], in [14], in [15], in assay [16], in assay [17] and in assay [18] was > 100 µM each time. Besides, the TGI in [19] was > 100 µM.
`CN(C)c1ccc(N=Nc2cccc3ncccc23)cc1`: the TGI in assay [1] was > 100 µM; in assay [2] it was > 100 µM; in assay [3], > 100 µM; in assay [4], > 100 µM; in [5], > 100 µM; in [6], > 79.8 µM. Further, the TGI in assay [7], in [8], in assay [9], in assay [10], in assay [11] and in assay [12] was > 100 µM in each case. Besides, the TGI in [13], in assay [14], in assay [15], in assay [16], in [17] and in assay [18] was > 100 µM throughout. Moreover, in assay [19], the TGI is > 100 µM.
As to `Cc1ccc(/C(O)=C/c2nc3ccccc3[nH]c2=O)c(C)c1`, the TGI in assay [1] is 43.7 µM; in [2] it was 36.7 µM; in assay [3], > 100 µM; in assay [4], > 45.9 µM; in [5], 56.1 µM; in assay [6], > 100 µM. For the same compound, the TGI in assay [7] is > 61.5 µM; in assay [8] it was > 65 µM; in assay [9], > 100 µM; in [10], 14.7 µM; in assay [11], 55.6 µM; in assay [12], 6.17 µM. Moreover, the TGI in assay [13] is > 75.9 µM; in [14], 30 µM; in assay [15], > 100 µM; in [16] it was 53 µM; in assay [17], 59.2 µM; in assay [18], 46.8 µM. For the same compound, the TGI in assay [19] worked out at 37 µM.
As to `CCOC(=O)C(=CNC(=S)Nc1c(CC)cccc1CC)C(=O)OCC`, the TGI in [1], in assay [2], in [3], in assay [4], in [5] and in assay [6] was > 100 µM in each case. The TGI in [7], in assay [8], in assay [9], in assay [10], in assay [11] and in [12] was > 100 µM throughout. Also, the TGI in assay [13], in assay [14], in [15], in [16], in assay [17] and in assay [18] was > 100 µM throughout. Moreover, the TGI in [19] was > 100 µM.
`Cc1cc(-c2nc3cc(O)ccc3s2)ccc1N`: the TGI in assay [1] is 44.2 µM; in [2], > 100 µM; in [3], > 100 µM; in assay [4], > 100 µM; in [5], 60.1 µM; in assay [6], > 100 µM. Moreover, the TGI in assay [7] was 66.6 µM; in assay [8] it was > 100 µM; in assay [9], > 100 µM; in assay [10] it was > 100 µM; in assay [11], > 100 µM; in assay [12], > 100 µM. Besides, the TGI is > 100 µM in assay [13]; 74.7 µM in assay [14]; > 100 µM in [15]; 73.4 µM in assay [16]; > 100 µM in [17]; > 100 µM in assay [18]. Moreover, the TGI in assay [19] is > 100 µM.
As for `CC(C)c1ccc2[nH]c(O)c(C3=Nc4ccccc4C3=O)c2c1`, the TGI in [1] was 69.8 µM; in [2] it was 41.4 µM; in [3], > 100 µM; in [4] it was 57.2 µM; in assay [5] it was 42.8 µM; in [6], > 100 µM. The TGI in assay [7] was > 100 µM; in [8] it was > 100 µM; in assay [9] it was > 100 µM; in assay [10], 12.3 µM; in [11], > 100 µM; in assay [12], 12.8 µM. Moreover, the TGI in assay [13] was > 100 µM; in [14], 18.6 µM; in assay [15] it was > 100 µM; in [16] it was > 100 µM; in assay [17], 85.3 µM; in assay [18] it was > 100 µM. For the same compound, in assay [19], the TGI amounted to 18.7 µM.
`O=C(OC(/C=C/c1ccccc1)P1(=O)N(Cc2ccccc2)[C@@H]2CCCC[C@H]2N1Cc1ccccc1)c1ccccc1` (stereo not given in full): the TGI in assay [1], in [2], in assay [3], in assay [4], in [5] and in assay [6] was > 100 µM in each case. Moreover, the TGI was > 100 µM in assay [7]; > 31.5 µM in [8]; > 100 µM in [9]; > 100 µM in [10]; > 100 µM in assay [11]; > 100 µM in [12]. Besides, the TGI was > 54.7 µM in [13]; > 100 µM in assay [14]; > 100 µM in assay [15]; > 100 µM in [16]; > 100 µM in assay [17]; > 27.3 µM in [18]. Besides, in [19], the TGI is > 100 µM.
Turning to `CN1CCN(CCCCN2c3ccccc3Sc3ccc(N=[N+]=[N-])cc32)CC1`, the TGI in [1] came out at 4.1 µM; in assay [2] it was 16.9 µM; in assay [3] it was 4.07 µM; in assay [4], 33.6 µM; in assay [5] it was 29.4 µM; in assay [6] it was 3.94 µM. For the same compound, the TGI is 20.8 µM in assay [7]; 35.7 µM in assay [8]; 6.85 µM in [9]; 22.6 µM in assay [10]; 30 µM in assay [11]; 23.6 µM in assay [12]. The TGI came out at 4.22 µM in assay [13]; 22.1 µM in [14]; 6.96 µM in assay [15]; 27.9 µM in [16]; 30.7 µM in [17]; 17.4 µM in assay [18]. The compound further displayed a TGI in assay [19] of 31.7 µM.
As to `OC(C/C(=N\N=C(/CC(O)(C(F)(F)F)C(F)(F)F)c1ccccc1)c1ccccc1)(C(F)(F)F)C(F)(F)F`, the TGI in assay [1], in assay [2], in assay [3], in assay [4], in assay [5] and in assay [6] was > 10 µM throughout. Also, the TGI in [7], in assay [8], in [9], in [10], in [11] and in assay [12] was > 10 µM each time. The TGI in assay [13], in [14], in assay [15], in assay [16], in assay [17] and in assay [18] was > 10 µM in each case. Besides, the TGI in assay [19] is > 10 µM.
For the compound `CC(=O)OC[C@@H](OC(C)=O)[C@@H](OC(C)=O)[C@H]1OC[C@@H]2C[C@H]([C@H]1OC(C)=O)N(Cc1ccccc1)O2`, the TGI in [1], in [2], in assay [3], in assay [4], in assay [5] and in assay [6] was > 100 µM each time. In addition, the TGI in assay [7], in assay [8], in assay [9], in assay [10], in [11] and in [12] was > 100 µM each time. Further, the TGI in [13], in assay [14], in assay [15], in assay [16], in assay [17] and in assay [18] was > 100 µM in each case. For the same compound, the TGI in assay [19] is > 100 µM.
